Experimental data from patent publication US20150283120A1, “ANTIBIOTIC METHODS AND COMPOSITIONS FOR BACTERIA INFECTIONS” (THE UNIVERSITY OF CHICAGO, priority 2012, published 2015).
“Also recorded” adds a separate entry of the source. Where a name gives a salt, the structure may show the parent alone. Read-outs that look alike come from different tables or passages of the source.

Tests used:
[1] = tested on: test strain (923 pPvra-lux); assay: Primary screen: growth (OD) of test strain with compound, with and without oxacillin; format: cell-based, Staphylococcus aureus; conditions: compound 10 μM, with and without oxacillin 2 μg/mL; OD at 24 h; library screened twice
[2] = tested on: vraSR operon (vra promoter, Pvra::lux); assay: Primary screen: Pvra-lux luminescence (vraSR induction); format: cell-based, Staphylococcus aureus; conditions: compound 10 μM, oxacillin 2 μg/mL; luminescence at 2 hours; library screened twice
[3] = tested on: MRSA strain USA300 Pvra-lux; format: cell-based, Staphylococcus aureus; conditions: compound 10 μM + oxacillin 2 μg/mL
Outline: (§1)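 Secondary screen: compound at 10 μM plus oxacillin 2 μg/mL, four biological replicates, luminescence read every 15 minutes. RG and RL are OD600 or max LU with compound plus oxacillin over pooled same-plate oxacillin controls; RL <0.8 repressor, >1.2 stimulator, 0.80-1.2 neutral.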

[4] = tested on: vraSR transcription (Pvra::lux); format: cell-based, Staphylococcus aureus; conditions: compound 10 μM + oxacillin 2 μg/mL
Outline: as §1

[5] = tested on: vraR transcription; assay: Tertiary screen: qRT-PCR of vraR in strain 923; format: cell-based, Staphylococcus aureus; conditions: for classification of lux screen result against qRT-PCR (true/false repressor or stimulator): in the presence of oxacillin; for Effect on vraSR Transcription: With oxacillin: qRT-PCR of vraR, compound 10 μM + oxacillin 2 μg/mL
[6] = tested on: MRSA strain USA300-isolate 923; assay: Checkerboard MIC testing of compounds with oxacillin; format: cell-based, Staphylococcus aureus; conditions: for oxacillin MIC: strain 923, 24 h; for change of the MIC of oxacillin with compound concentration: strain 923, checkerboard; for bactericidal effect of oxacillin (MBC, >99.9% killing): strain 923, wells with FICi≦0.5 spotted on TSA
[7] = tested on: diverse MRSA strains; assay: MIC of oxacillin with a single concentration of compound in multiple MRSA strains; format: cell-based, Staphylococcus aureus; conditions: for MIC 80 of Ox in presence of compound: panel of 11 MRSA isolates, clom 3.8 μM, gos 15 μM, pyr 0.5 μM; for MIC50 of oxacillin in the presence of compound / MIC80 of oxacillin in the presence of compound / fold decrease in the oxacillin MIC50: panel of strains; for fold decrease in the oxacillin MIC50: with compound against oxacillin alone
Description: Testing potentiation of oxacillin by compounds in multiple MRSA strains: In order to be considered a synergistic agent in therapy of MRSA infection, it must be effective as a potentiator in diverse MRSA strains. To determine whether the oxacillin potentiators were effective against MRSA strains besides USA300, a single effective concentration of three compounds that were not known as antibiotics—gossypol, pyrvinium and clomiphene—were tested against multiple MRSA genetic backgrounds. Each compound was tested at a single optimal concentration, determined in the checkerboard assays, in combination with various concentrations of oxacillin. The strains included in this panel were from diverse genetic backgrounds as determined by multilocus sequence type (MLST) and contained a variety of SCCmec types. […] The MIC80 was […] for clomiphene, gossypol, and pyrvinium, respectively.

[8] = tested on: VRS1; assay: microbe, parasite or virus in culture; format: cell-based, Staphylococcus aureus; conditions: for MIC: Staphylococcus aureus, read-out: MIC compound; for Synergy category: with vancomycin
Excerpt: (§2) As shown in the analysis of the checkerboard assays (Table 6), gossypol fully potentiated vancomycin (FIC i<0.5) in hVISA, VISA, VRS2 and VRS1. […] Clomiphene partially potentiated vancomycin in hVISA, VISA, and VRS1 and it fully potentiated in strain VRS2.

[9] = tested on: VRS2; assay: microbe, parasite or virus in culture; format: cell-based, Staphylococcus aureus; conditions: for MIC: Staphylococcus aureus, read-out: MIC compound
Excerpt: as §2

[10] = tested on: hVISA 2275; assay: microbe, parasite or virus in culture; format: cell-based, Staphylococcus aureus; conditions: for MIC: Staphylococcus aureus, read-out: MIC compound; for Synergy category: with vancomycin
Excerpt: as §2

[11] = tested on: VISA 2283; assay: microbe, parasite or virus in culture; format: cell-based, Staphylococcus aureus; design: MIC (in combination) Van+: unit not given beside the values; conditions: for MIC: Staphylococcus aureus, read-out: MIC compound; for Synergy category: with vancomycin
Excerpt: as §2

[12] = tested on: MRSA strain 8004-01; assay: Checkerboard oxacillin + compound, strain 8004-01; design: MIC OX / MIC OX (+) / MIC cmpd alone: unit not given beside the values; conditions: strain 8004-1 (ST239); for MIC cmpd +: compound in combination with oxacillin; for FICi: oxacillin + compound; for MIC OX (+): oxacillin in combination with compound

Cc1cc2c(C(C)C)c(O)c(O)c(C=O)c2c(O)c1-c1c(C)cc2c(C(C)C)c(O)c(O)c(C=O)c2c1O [Gossypol, 2,2′-bis-(Formyl-1,6,7-trihydroxy-5-isopropyl-3-methylnaphthalene)]
primary screen category by effect on growth of MRSA strain 923 [1]: strong growth inhibitors on their own | primary screen category by effect on vraSR (Pvra-lux luminescence) [2]: repressed Pvra::lux in both primary screens | OD600 category [3]: inhibited (of <0.8 were classified as oxacillin synergists or potentiators) | RG avg (relative growth) ([3]; ratio of OD600 to oxacillin alone, four runs): 0.16 | Effect on vraSR transcription [4]: repress (“vraSR repressors” (mean RL of <0.8)) | RL avg (relative luminescence) ([4]; ratio of LU to oxacillin alone, four runs): 0.11 | classification of lux screen result against qRT-PCR (true/false repressor or stimulator) [5]: true vraSR expression repressors | Effect on vraSR Transcription: With oxacillin [5]: vraR inhibitors; also recorded: repress | oxacillin MIC ([6]; compound 0.25 μM): 32 µg/mL | oxacillin MIC ([6]; compound 0.5 μM): 32 µg/mL | oxacillin MIC ([6]; compound 1 μM): 16 µg/mL | oxacillin MIC ([6]; compound 2 μM): 4 µg/mL | oxacillin MIC ([6]; compound 4 μM): 2 µg/mL | oxacillin MIC ([6]; compound 8 μM): 2 µg/mL | oxacillin MIC ([6]; compound 16 μM): 2 µg/mL | change of the MIC of oxacillin with compound concentration [6]: dose dependent decrease | bactericidal effect of oxacillin (MBC, >99.9% killing) [6]: increased the bactericidal effect of oxacillin | MIC 80 of Ox in presence of compound [7]: 8 µg/mL | MIC50 of oxacillin in the presence of compound [7]: 0.5 µg/mL | MIC80 of oxacillin in the presence of compound [7]: 0.008 µg/mL | fold decrease in the oxacillin MIC50 [7]: 32 fold | MIC [8]: 20.8 µg/mL | Synergy category ([8]; VRS1, listed as Gos): synergistic (fully potentiated vancomycin (FIC i<0.5)) | MIC [9]: 5.2 µg/mL | FICi V + compound ([9]; VRS2): 0.31 | Van FIC ([9]; VRS2): 0.06 | compound FIC ([9]; VRS2): 0.25 | fold decrease Van MIC ([9]; VRS2): 16 fold | MIC (in combination) compound+ ([9]; VRS2, compound MIC with the indicated Van concentration): 1.3 | Synergy category ([9]; VRS2, with vancomycin, listed as Gos): synergistic (fully potentiated vancomycin (FIC i<0.5)) | MIC [10]: 10.4 µg/mL | FICi V + compound ([10]; hVISA 2275): 0.38 | Van FIC ([10]; hVISA 2275): 0.25 | compound FIC ([10]; hVISA 2275): 0.125 | fold decrease Van MIC ([10]; hVISA 2275): 4 fold | MIC (in combination) compound+ ([10]; hVISA 2275, compound MIC with the indicated Van concentration): 1.3 | Synergy category ([10]; hVISA 2275): fully potentiated (fully potentiated vancomycin (FIC i<0.5)) | Synergy category ([10]; hVISA 2275, listed as Gos): synergistic (fully potentiated vancomycin (FIC i<0.5)) | MIC ([11]; VISA): 10.4 µg/mL | Synergy category ([11]; VISA 2283): fully potentiated (fully potentiated vancomycin (FIC i<0.5)) | Synergy category ([11]; VISA 2283, listed as Gos): partial (partially potentiated vancomycin (FIC i>0.5 and <1.0)) | FIC Compound [12]: .5 | FIC Ox [12]: .06 | MIC cmpd alone [12]: 40 | MIC cmpd + [12]: 20 µg/mL | FICi [12]: 0.56 | FICi ([12]; listed as Gos): .56 | MIC OX (+) [12]: 32

CCN(CC)CCOc1ccc(/C(=C(/Cl)c2ccccc2)c2ccccc2)cc1 [Clomiphene citrate (Z,E), 2-(4-(2-chloro-1,2-diphenylethenyl)phenoxy)-N,N-diethyl-ethanamine]
classification of lux screen result against qRT-PCR (true/false repressor or stimulator) [5]: true vraSR expression repressors | Effect on vraSR Transcription: With oxacillin ([5]; listed as clomifene): vraR inhibitors; also recorded: repress | oxacillin MIC ([6]; compound 0.25 μM): 32 µg/mL | oxacillin MIC ([6]; compound 0.5 μM): 16 µg/mL | oxacillin MIC ([6]; compound 1 μM): 32 µg/mL | oxacillin MIC ([6]; compound 2 μM): 32 µg/mL | oxacillin MIC ([6]; compound 4 μM): 8 µg/mL | oxacillin MIC ([6]; compound 8 μM): 8 µg/mL | oxacillin MIC ([6]; compound 16 μM): 2 µg/mL | change of the MIC of oxacillin with compound concentration [6]: dose dependent decrease | bactericidal effect of oxacillin (MBC, >99.9% killing) [6]: increased the bactericidal effect of oxacillin | MIC 80 of Ox in presence of compound [7]: 2 µg/mL | MIC50 of oxacillin in the presence of compound [7]: 0.5 µg/mL | MIC80 of oxacillin in the presence of compound [7]: 0.002 µg/mL | fold decrease in the oxacillin MIC50 [7]: 32 fold | MIC ([8]; VRS1, compound alone): 12 µg/mL | FICi V + compound ([8]; VRS1): 0.75 | Synergy category ([8]; VRS1): partially potentiated (partially potentiated vancomycin (FIC i>0.5 and <1.0)) | Synergy category ([8]; VRS1, listed as Clo): partial (partially potentiated vancomycin (FIC i>0.5 and <1.0)) | MIC ([9]; VRS2, compound alone): 12 µg/mL | MIC ([10]; hVISA 2275, compound alone): 12 µg/mL | Synergy category ([10]; hVISA 2275, listed as Clo): partial (partially potentiated vancomycin (FIC i>0.5 and <1.0)) | MIC ([11]; VISA 2283, compound alone): 12 µg/mL | FICi V + compound ([11]; VISA 2283): 0.75 | Van FIC ([11]; VISA 2283): 0.5 | compound FIC ([11]; VISA 2283): 0.25 | fold decrease Van MIC ([11]; VISA 2283): 2 fold | MIC (in combination) compound+ ([11]; VISA 2283, compound MIC with the indicated Van concentration): 3 | MIC (in combination) Van+ ([11]; VISA 2283, vancomycin MIC in combination with compound): 4 | Synergy category ([11]; VISA 2283): partially potentiated (partially potentiated vancomycin (FIC i>0.5 and <1.0)) | Synergy category ([11]; VISA 2283, listed as Clo): partial (partially potentiated vancomycin (FIC i>0.5 and <1.0)) | FIC Compound [12]: 0.5 | FIC Ox [12]: .03 | MIC cmpd alone [12]: 10.4 | MIC cmpd + [12]: 5.2 µg/mL | FICi [12]: 0.53 | MIC OX (+) [12]: 16
